Results: patent US20240315247A1, “MICROBIOCIDAL QUINOLINE DIHYDRO-(THIAZINE)OXAZINE DERIVATIVES” (SYNGENTA CROP PROTECTION AG, priority 2020, published 2024)

Legend:
[1] = test system: Monographella nivalis (Microdochium nivale); test: Monographella nivalis (Microdochium nivale) / liquid culture (Foot rot cereals); assay type: cell-based; settings: growth inhibition photometrically 4-5 days after application, compared to untreated control
Procedure: (§1) Monographella nivalis (Microdochium nivale)/Liquid Culture (Foot Rot Cereals) Conidia of the fungus from cryogenic storage are directly mixed into nutrient broth (PDB potato dextrose broth). After placing a (DMSO) solution of test compound into a microtiter plate (96-well format), the nutrient broth containing the fungal spores is added. The test plates are incubated at 24° C. and the inhibition of growth is determined photometrically 4-5 days after application.

[2] = test system: Botryotinia fuckeliana (Botrytis cinerea); test: Botryotinia fuckeliana (Botrytis cinerea) / liquid culture (Gray mould); assay type: cell-based; settings: growth inhibition photometrically 3-4 days after application, compared to untreated control
Procedure: as §1, with “Botryotinia Fuckeliana (Botrytis cinerea)/Liquid” for “Monographella nivalis (Microdochium nivale)/Liquid”, “(Gray Mould)” for “(Foot Rot Cereals)”, “(Vogels” for “(PDB potato dextrose”, “3-4” for “4-5”

[3] = test system: Glomerella lagenarium (Colletotrichum laqenarium); test: Glomerella lagenarium (Colletotrichum lagenarium) / liquid culture (Anthracnose); assay type: cell-based; settings: growth inhibition photometrically 3-4 days after application, compared to untreated control
Procedure: as §1, with “Glomerella lagenarium (Colletotrichum laqenarium)/liquid culture (Anthracnose)” for “Monographella nivalis (Microdochium nivale)/Liquid Culture (Foot Rot Cereals)”, “measured” for “determined”, “3-4” for “4-5”

melting point [°C] | Structure (SMILES) | inhibition of growth at 20 ppm [1] [%] | inhibition of growth at 20 ppm [2] [%] | inhibition of growth at 20 ppm [3] [%]
– | CC1(COc2ccc(F)cc2)CC(C)(C)OC(c2cnc3c(F)cccc3c2)=N1 (stereo not drawn) [E.04, 4-[(4-fluorophenoxy)methyl]-2-(8-fluoro-3-quinolyl)-4,6,6-trimethyl-5H-1,3-oxazine] | ≥ 80 | ≥ 80 | ≥ 80
– | CC1(C)CC(CCC(F)(F)F)N=C(c2cnc3c(F)c(F)ccc3c2)O1 (stereo not drawn) [E.010, 2-(7,8-difluoro-3-quinolyl)-6,6-dimethyl-4-(3,3,3-trifluoropropyl)-4,5-dihydro-1,3-oxazine] | ≥ 80 | ≥ 80 | –
146 to 148 | CC1(C)CC(CC(F)(F)F)N=C(c2cnc3c(F)c(F)ccc3c2)O1 (stereo not drawn) [E.09, 2-(7,8-difluoro-3-quinolyl)-6,6-dimethyl-4-(2,2,2-trifluoroethyl)-4,5-dihydro-1,3-oxazine] | ≥ 80 | – | –
– | CC1(COc2ccc(Br)cc2)CC(C)(C)OC(c2cnc3c(F)cccc3c2)=N1 (stereo not drawn) [E.03, 4-[(4-bromophenoxy)methyl]-2-(8-fluoro-3-quinolyl)-4,6,6-trimethyl-5H-1,3-oxazine] | ≥ 80 | ≥ 80 | ≥ 80
– | CC1(COc2ccccc2)CC(C)(C)OC(c2cnc3c(F)cccc3c2)=N1 (stereo not drawn) [E.08, 2-(8-fluoro-3-quinolyl)-4,6,6-trimethyl-4-(phenoxymethyl)-5H-1,3-oxazine] | ≥ 80 | ≥ 80 | ≥ 80
– | CC1(C)CC(COc2ccccc2)N=C(c2cnc3c(F)c(F)ccc3c2)O1 (stereo not drawn) [E.07, 2-(7,8-difluoro-3-quinolyl)-6,6-dimethyl-4-(phenoxymethyl)-4,5-dihydro-1,3-oxazine] | ≥ 80 | ≥ 80 | –
– | C=C(C)CC1(CC)CC(C)(C)OC(c2cnc3c(F)cccc3c2)=N1 (stereo not drawn) [E.020, 4-ethyl-2-(8-fluoro-3-quinolyl)-6,6-dimethyl-4-(2-methylallyl)-5H-1,3-oxazine] | ≥ 80 | ≥ 80 | ≥ 80
105 to 107 | CC1(COc2ccccc2)CC(C)(C)OC(c2cnc3c(F)c(F)ccc3c2)=N1 (stereo not drawn) [E.06, 2-(7,8-difluoro-3-quinolyl)-4,6,6-trimethyl-4-(phenoxymethyl)-5H-1,3-oxazine] | ≥ 80 | ≥ 80 | –
– | CC1(COc2ccc(C#N)cc2)CC(C)(C)OC(c2cnc3c(F)cccc3c2)=N1 (stereo not drawn) [E.01, 4-[[2-(8-fluoro-3-quinolyl)-4,6,6-trimethyl-5H-1,3-oxazin-4-yl]methoxy]benzonitrile] | ≥ 80 | ≥ 80 | –
– | CC(C)CC1(C)CC(C)(C)OC(c2cnc3c(F)cccc3c2)=N1 (stereo not drawn) [E.013, 2-(8-fluoro-3-quinolyl)-4-isobutyl-4,6,6-trimethyl-5H-1,3-oxazine] | ≥ 80 | ≥ 80 | ≥ 80
– | Cc1nc2c(F)c(F)ccc2cc1C1=NC(C)(COc2ccccc2)CC(C)(C)O1 (stereo not drawn) [E.05, 2-(7,8-difluoro-2-methyl-3-quinolyl)-4,6,6-trimethyl-4-(phenoxymethyl)-5H-1,3-oxazine] | ≥ 80 | ≥ 80 | –
– | CC(C)CC1(C)CC(C)(C(C)C)OC(c2cnc3c(F)cccc3c2)=N1 (stereo not drawn) [E.017, 2-(8-fluoro-3-quinolyl)-4-isobutyl-6-isopropyl-4,6-dimethyl-5H-1,3-oxazine] | ≥ 80 | ≥ 80 | ≥ 80
– | C=C(C)CC1(C)CC(C)(C)OC(c2cnc3c(F)cccc3c2)=N1 (stereo not drawn) [E.019, 2-(8-fluoro-3-quinolyl)-4,6,6-trimethyl-4-(2-methylallyl)-5H-1,3-oxazine] | ≥ 80 | ≥ 80 | ≥ 80
– | CC(C)CC1(C)CC(C)(C)OC(c2cnc3c(F)c(F)ccc3c2)=N1 (stereo not drawn) [E.014, 2-(7,8-difluoro-3-quinolyl)-4-isobutyl-4,6,6-trimethyl-5H-1,3-oxazine] | ≥ 80 | ≥ 80 | ≥ 80
– | CCC1(C)CC(C)(CC(C)C)N=C(c2cnc3c(F)cccc3c2)O1 (stereo not drawn) [E.018, 6-ethyl-2-(8-fluoro-3-quinolyl)-4-isobutyl-4,6-dimethyl-5H-1,3-oxazine] | ≥ 80 | ≥ 80 | ≥ 80
– | C=C(C)CC1(C)CC(C)(C)OC(c2cnc3c(F)c(F)ccc3c2)=N1 (stereo not drawn) [E.016, 2-(7,8-difluoro-3-quinolyl)-4,6,6-trimethyl-4-(2-methylallyl)-5H-1,3-oxazine] | ≥ 80 | ≥ 80 | ≥ 80
– | CC1(COc2ccc(Br)cc2Br)CC(C)(C)OC(c2cnc3c(F)cccc3c2)=N1 (stereo not drawn) [E.02, 4-[(2,4-dibromophenoxy)methyl]-2-(8-fluoro-3-quinolyl)-4,6,6-trimethyl-5H-1,3-oxazine] | ≥ 80 | ≥ 80 | –
– | CC(C)CC1CC(C)(C)OC(c2cnc3c(F)c(F)ccc3c2)=N1 (stereo not drawn) [E.012, 2-(7,8-difluoro-3-quinolyl)-4-isobutyl-6,6-dimethyl-4,5-dihydro-1,3-oxazine] | ≥ 80 | ≥ 80 | ≥ 80
112 to 113 | CC(C)(C)CC1CC(C)(C)OC(c2cnc3c(F)c(F)ccc3c2)=N1 (stereo not drawn) [E.011, 2-(7,8-difluoro-3-quinolyl)-4-(2,2-dimethylpropyl)-6,6-dimethyl-4,5-dihydro-1,3-oxazine] | ≥ 80 | ≥ 80 | –
– | CC1(CC2CCCCC2)CC(C)(C)OC(c2cnc3c(F)c(F)ccc3c2)=N1 (stereo not drawn) [E.015, 4-(cyclohexylmethyl)-2-(7,8-difluoro-3-quinolyl)-4,6,6-trimethyl-5H-1,3-oxazine] | ≥ 80 | ≥ 80 | ≥ 80
